Reference: article PMC4392609, “Interactions of antiretroviral drugs with the SLC22A1 (OCT1) drug transporter” (Frontiers in Pharmacology, 2015)
Several values for one entry are separate records, joined by “and”; a condition that tells them apart may be missing. Identical values can stand only once. Like-named read-outs stand apart in the source and are kept apart here.

Columns and labels:
SLC22A1 [1] = biological target: T1, SLC22A1 (Homo sapiens, UniProt O15245); assay: Tetraethylammonium accumulation in SLC22A1-overexpressing KCL22 cells co-incubated with 50 μM test drug; conditions: for Reduction in cellular accumulation (of tetraethylammonium): 50 μM drug, SLC22A1-overexpressing KCL22 cells
T1 sequence (O15245 1-554): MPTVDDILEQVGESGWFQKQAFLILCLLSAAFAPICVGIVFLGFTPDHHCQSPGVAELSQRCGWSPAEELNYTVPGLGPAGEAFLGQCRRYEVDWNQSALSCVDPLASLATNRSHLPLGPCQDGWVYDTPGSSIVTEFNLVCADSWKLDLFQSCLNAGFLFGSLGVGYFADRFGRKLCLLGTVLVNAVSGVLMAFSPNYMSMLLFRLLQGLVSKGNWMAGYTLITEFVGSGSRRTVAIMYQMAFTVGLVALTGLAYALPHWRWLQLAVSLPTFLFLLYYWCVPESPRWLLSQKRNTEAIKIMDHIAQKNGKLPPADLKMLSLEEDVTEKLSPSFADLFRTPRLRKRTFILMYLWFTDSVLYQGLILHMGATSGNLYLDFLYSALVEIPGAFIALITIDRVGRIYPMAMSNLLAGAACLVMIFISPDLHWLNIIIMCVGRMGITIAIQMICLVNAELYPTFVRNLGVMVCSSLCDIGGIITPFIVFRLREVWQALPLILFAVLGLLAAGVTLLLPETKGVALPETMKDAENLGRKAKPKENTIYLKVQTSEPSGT

SLC22A1 [2] = biological target: T1, SLC22A1; set-up: expressed in transfected cells; method as in Zhang et al., 2000; conditions: ref Zhang et al., 2000; cited from earlier work
SLC22A1 [3] = biological target: T1, SLC22A1; set-up: expressed in transfected cells; method as in Jung et al., 2008; conditions: 1-methyl-4-phenylpyridinium as substrate, HEK-293 cells, 1 min incubation; efavirenz assessed only at 5 μM; ref Jung et al., 2008; cited from earlier work
SLC22A1 [4] = biological target: T1, SLC22A1; assay: SLC22A1 IC50 determination (inhibition of tetraethylammonium accumulation over a concentration range); assay type: cell-based; set-up: expressed in transfected cells; conditions: for TEA accumulation when 100 μM inhibitor used (%compared to inhibitor-free control): tetraethylammonium 5.5 μM, 30 min
SLC22A1 [5] = biological target: T1, SLC22A1; conditions: 30 min
Source text: Using intracellular radioactivity readings, the amount of drug in mock transfected cells was compared to SLC22A1-overexpressing KCL22 cells (% ± SD).

[6] = ref Villani et al., 1999; cited from earlier work
[7] = SLC22A1-overexpressing KCL22 cells, 100 μM inhibitor

With Cc1ccnc2c1NC(=O)c1cccnc1N2C1CC1 [nevirapine] the “Reduction in cellular accumulation (of tetraethylammonium)” value (“Reduction in cellular accumulation” for short) (SLC22A1 [1]) was 24.5%.
In the case of CC(C)c1nc(CN(C)C(=O)N[C@H](C(=O)N[C@@H](Cc2ccccc2)C[C@H](O)[C@H](Cc2ccccc2)NC(=O)OCc2cncs2)C(C)C)cs1 [ritonavir], the “Effect on tetraethylammonium accumulation in SLC22A1-overexpressing Hela cells” value (from here on “Effect”) (SLC22A1 [2]) is given as “able to reduce tetraethylammonium accumulation” and the “SLC22A1 inhibition in vitro” value (SLC22A1 [3]) is given as “inhibited”.
With COc1cc2nc(N3CCN(C(=O)c4ccco4)CC3)nc(N)c2cc1OC [prazosin] the “Reduction in cellular tetraethylammonium accumulation” value (SLC22A1 [4]; 100 μM inhibitor, SLC22A1-overexpressing KCL22 cells) was 84%, the “TEA accumulation when 100 μM inhibitor used (%compared to inhibitor-free control)” value (SLC22A1 [4]; [7]) was 16.1% and the IC50 (SLC22A1 [4]; read-out: Absolute IC50) was 2.8 µM. For the same compound, the IC50 (SLC22A1 [4]; read-out: Relative IC50) was 2.3 µM.
In the case of CC(C)(C)NC(=O)[C@@H]1CN(Cc2cccnc2)CCN1C[C@@H](O)C[C@@H](Cc1ccccc1)C(=O)N[C@H]1c2ccccc2C[C@H]1O [indinavir], the “Effect” value (SLC22A1 [2]) is listed as “able to reduce tetraethylammonium accumulation”.
In the case of Cc1cn([C@H]2C[C@H](N=[N+]=[N-])[C@@H](CO)O2)c(=O)[nH]c1=O [zidovudine], the “Tetraethylammonium concentration in cells after 30 min incubation” value (SLC22A1 [1]) is reported as 8.5 ± 3.1 µM.
In the case of Cc1cc(C#N)cc(C)c1Oc1nc(Nc2ccc(C#N)cc2)nc(N)c1Br [etravirine], the “Reduction in cellular accumulation” value (SLC22A1 [1]) is reported as 22.5%.
In the case of Nc1ccn([C@@H]2CS[C@H](CO)O2)c(=O)n1 [lamivudine], the “SLC22A1 inhibition in vitro” value (SLC22A1 [3]) is listed as “significant inhibition”.
In the case of Cc1c(O)cccc1C(=O)N[C@@H](CSc1ccccc1)[C@H](O)CN1C[C@H]2CCCC[C@H]2C[C@H]1C(=O)NC(C)(C)C [nelfinavir], the “Effect” value (SLC22A1 [2]) is listed as “able to reduce tetraethylammonium accumulation” and the “SLC22A1 inhibition in vitro” value (SLC22A1 [3]) is listed as “inhibited”.
With Cc1nnc(C(=O)NC(C)(C)c2nc(C(=O)NCc3ccc(F)cc3)c(O)c(=O)n2C)o1 [raltegravir] the “Tetraethylammonium concentration in cells after 30 min incubation” value (SLC22A1 [1]) was 9.6 ± 1.4 µM.
In the case of CC[N+](CC)(CC)CC [tetraethylammonium], the “Amount of substrate in SLC22A1-overexpressing cells subjected to prazosin compared to SLC22A1-overexpressing cells (% less)” value (SLC22A1 [5]; KCL22 cells, 100 μM prazosin, efavirenz 20 μM, darunavir 20 μM, tetraethylammonium 1 μM) is reported as 76%, the “Amount of substrate in mock-transfected cells compared to SLC22A1-overexpressing cells (% less)” value (SLC22A1 [5]; KCL22 cells, efavirenz 20 μM, darunavir 20 μM, tetraethylammonium 1 μM) is reported as 92% and the “Tetraethylammonium cellular accumulation in mock transfected control KCL22 cells” value (SLC22A1 [1]; tetraethylammonium 5.5 μM, 30 min, no inhibitor, mean ± SD, n = 3) is reported as 0.3 ± 0.04 µM and 0.3 ± 0.004 µM. The “Tetraethylammonium cellular accumulation in SLC22A1-overexpressing KCL22 cells” value (SLC22A1 [1]; tetraethylammonium 5.5 μM, 30 min, no inhibitor, mean ± SD, n = 9) was 10.6 ± 0.8 µM.
With Cc1cc(/C=C/C#N)cc(C)c1Nc1ccnc(Nc2ccc(C#N)cc2)n1 [rilpivirine] the “Reduction in cellular accumulation” value (SLC22A1 [1]) was 41.2%.
For COC(=O)N[C@H](C(=O)N[C@@H](Cc1ccccc1)[C@@H](O)CN(Cc1ccc(-c2ccccn2)cc1)NC(=O)[C@@H](NC(=O)OC)C(C)(C)C)C(C)(C)C [atazanavir], the “SLC22A1 inhibition in vitro” value (SLC22A1 [3]) is given as “no SLC22A1-inhibiting capability”.
For CC(C)(C)NC(=O)[C@@H]1C[C@@H]2CCCC[C@@H]2CN1C[C@@H](O)[C@H](Cc1ccccc1)NC(=O)[C@H](CC(N)=O)NC(=O)c1ccc2ccccc2n1 [saquinavir], the “Effect” value (SLC22A1 [2]) is given as “able to reduce tetraethylammonium accumulation”.
In the case of O=C1Nc2ccc(Cl)cc2[C@@](C#CC2CC2)(C(F)(F)F)O1 [efavirenz], the “Maximum plasma concentration of efavirenz” value [6] is given as 12.7 µM, the “TEA accumulation when 100 μM inhibitor used (%compared to inhibitor-free control)” value (SLC22A1 [4]; [7]) is given as 39.7% and the IC50 (SLC22A1 [4]; read-out: Absolute IC50) is given as 21.8 µM. For the same compound, the IC50 (SLC22A1 [4]; read-out: Relative IC50) was 7.4 µM, the “Accumulation in SLC22A1-expressing cells compared to mock-transfected cells (% higher)” value (SLC22A1 [5]; human, 20 μM) was 17% and the “Amount of substrate in mock-transfected cells compared to SLC22A1-overexpressing cells (% less)” value (SLC22A1 [5]; human, 20 μM) was 17%. For the same compound, the “Reduction in cellular accumulation” value (SLC22A1 [1]) was 50.0% and the “SLC22A1 inhibition in vitro” value (SLC22A1 [3]) was “did not show SLC22A1 inhibition”.
